Assay: Hydrolysis rate / drug release rate of the compounds (release of JAK inhibitor, HPLC)
Assay type: physicochemical
Conditions: % release of JAK inhibitor from sample in acetonitrile/water=7/3 (v/v), 37° C. constant temperature shaker, sampled days 1-4, HPLC
Description: Analysis Method for Hydrolysis Rate of Compounds of the Present Invention
1. Preparation of Standard Working Curve Solution
(§1) About 10 mg of JAK inhibitors (tofacitinib and baricitinib) reference substances were weighed into a 25 mL volumetric flask, acetonitrile/water=7/3 (v/v) was added to dissolve and dilute to the marked volume, serving as a stock solution. The stock solution was diluted with a suitable dilution factor to obtain linear solutions of each concentration: 0.0002 mg/mL, 0.0004 mg/mL, 0.004 mg/mL, 0.04 mg/mL, and 0.08 mg/mL.
as §1, with “(Oclacitinib, Ruxolitinib, Delgocitinib,” for “(tofacitinib”, “Upadacitinib)” for “baricitinib)”
2. Preparation of Sample Solution
About 5 mg of the sample (the compound prepared in the present invention) was weighed into a 20 mL volumetric flask, acetonitrile/water=7/3 (v/v) was added to dissolve and dilute to the marked volume, serving as a stock solution. An appropriate amount of HPLC was loaded as the 0-day sample. The test solution was sealed with a sealing film and placed in a 37° C. constant temperature shaker. The test samples were taken at the same time on days 1, 2, 3, and 4 respectively. the release amount of JAK inhibitor in the sample was calculated according to the sample weight and JAK inhibitor standard curve.
3. Calculation Formula % Release of JAK Inhibitor r=100%×((AJAK Inhibitor−b)/a)/((W/20×M2/M1) wherein • AJAK inhibitor is the peak area of JAK inhibitor in the sample chromatogram • b is the intercept of the standard curve M1 is the molecular weight of the sample a is the slope of the standard curve
W is the sample weight (mg) M2 is the molecular weight of the JAK inhibitor
4. Chromatographic Conditions

SMILES | Release Rate (%/day)
CC(C)Cc1ccc(C(C)C(=O)n2ccc3c(N(C)[C@H]4CN(C(=O)CC#N)CC[C@H]4C)ncnc32)cc1 (stereo partly drawn) [Ex. 1, 3-((3R,4R)-3-((7-(2-(4-isobutylphenyl)propanoyl)-7H-pyrrolo [2,3-d]pyrimidin-4-yl) (methyl)amino)-4-methylpiperidin-1-yl)-3-oxopropanenitrile] | 8.26
CC(C)Cc1ccc([C@H](C)C(=O)OCn2ccc3c(N(C)[C@H]4CN(C(=O)CC#N)CC[C@H]4C)ncnc32)cc1 [Ex. 3] | 0.05
Cc1cccc(Nc2ccccc2C(=O)n2ccc3c(N(C)[C@H]4CN(C(=O)CC#N)CC[C@H]4C)ncnc32)c1C [Ex. 4, 3-((3R,4R)-3-((7-(2-((2,3-dimethylphenyl)amino)benzoyl)-7H-pyrrolo[2,3-d]pyrimidin-4-yl)(methyl)amino)-4-methylpiperidin-1-yl)-3-oxopropanenitrile] | 3.32
COc1ccc2cc([C@H](C)C(=O)n3ccc4c(N(C)[C@H]5CN(C(=O)CC#N)CC[C@H]5C)ncnc43)ccc2c1 [Ex. 6, 3-((3R, 4R)-3-((7-((S)-2-(6-methoxynaphthalen-2-yl)propanoyl)-7H-pyrrolo[2,3-d]pyrimidin-4-yl) (methyl)amino)-4-methylpiperidin-1-yl)-3-oxopropanenitrile] | 9.82
CC(C(=O)n1ccc2c(N(C)[C@H]3CN(C(=O)CC#N)CC[C@H]3C)ncnc21)c1cccc(C(=O)c2ccccc2)c1 (stereo partly drawn) [Ex. 7, 3-((3R,4R)-3-((7-(2-(3-benzoylphenyl)propanoyl)-7H-pyrrolo[2,3-d]pyrimidin-4-yl) (methyl)amino)-4-methylpiperidin-1-yl)-3-oxopropanenitrile] | 15.65
CC(C(=O)n1ccc2c(N(C)[C@H]3CN(C(=O)CC#N)CC[C@H]3C)ncnc21)c1ccc(-c2ccccc2)c(F)c1 (stereo partly drawn) [Ex. 8, 3-((3R, 4R)-3-((7-(2-(2-fluoro-[1, 1′-biphenyl]-4-yl)propanoyl)-7H-pyrrolo[2,3-d]pyrimidin-4-yl)(methyl)amino)-4-methylpiperidin-1-yl)-3-oxopropanenitrile] | 14.77
C[C@@H]1CCN(C(=O)CC#N)C[C@@H]1N(C)c1ncnc2c1ccn2C(=O)Cc1ccccc1Nc1c(Cl)cccc1Cl [Ex. 9] | 13.49
CC(C(=O)n1ccc2c(N(C)[C@H]3CN(C(=O)CC#N)CC[C@H]3C)ncnc21)c1cccc(Oc2ccccc2)c1 (stereo partly drawn) [Ex. 10, 3-((3R,4R)-4-methyl-3-(methyl (7-(2-(3-phenoxyphenyl)propanoyl)-7H-pyrrolo [2,3-d]pyrimidin-4-yl)amino)piperidin-1-yl)-3-oxopropanenitrile] | 11.25
CC(C(=O)n1ccc2c(N(C)[C@H]3CN(C(=O)CC#N)CC[C@H]3C)ncnc21)c1ccc(CC2CCCC2=O)cc1 (stereo partly drawn) [Ex. 11, 3-((3R,4R)-4-methyl-3-(methyl (7-(2-(4-((2-oxocyclopentyl)methyl)phenyl)propanoyl)-7H-pyrrolo[2,3-d]pyrimidin-4-yl)amino)piperidin-1-yl)-3-oxopropanenitrile] | 9.17
CC(=O)Nc1ccc(CC(=O)n2ccc3c(N(C)[C@H]4CN(C(=O)CC#N)CC[C@H]4C)ncnc32)cc1 [Ex. 13, N-(4-(2-(4-(((3R, 4R)-1-(2-cyanoacetyl)-4-methylpiperidin-3-yl) (methyl)amino)-7H-pyrrolo[2,3-d]pyrimidin-7-yl)-2-oxoethyl)phenyl)acetamide] | 12.18
CCc1cccc2c3c([nH]c12)C(CC)(CC(=O)n1ccc2c(N(C)[C@H]4CN(C(=O)CC#N)CC[C@H]4C)ncnc21)OCC3 (stereo partly drawn) [Ex. 14, 3-((3R,4R)-3-((7-(2-(1,8-diethyl-1,3,4,9-tetrahydropyrano[3,4-b]indol-1-yl)acetyl)-7H-pyrrolo[2,3-d]pyrimidin-4-yl) (methyl)amino)-4-methylpiperidin-1-yl)-3-oxopropanenitrile] | 0.98
CC(=O)Oc1ccccc1C(=O)n1ccc2c(N(C)[C@H]3CN(C(=O)CC#N)CC[C@H]3C)ncnc21 [Ex. 15, 2-(4-((3R, 4R)-1-(2-cyanoacetyl)-4-methylpiperidin-3-yl) (methyl)amino)-7H-pyrrolo[2,3-d] pyrimidine-7-carbonyl)phenyl acetate] | 1.86
C[C@@H]1CCN(C(=O)CC#N)C[C@@H]1N(C)c1ncnc2c1ccn2C(=O)[C@@H](NC(=O)OC(C)(C)C)c1ccccc1 [Ex. 16, Tert-butyl ((S)-2-(4-(((3R, 4R)-1-(2-cyanoacetyl)-4-methylpiperidin-3-yl) (methyl)amino)-7H-pyrrolo[2,3-d]pyrimidin-7-yl)-2-oxo-1-phenylethyl)carbamate] | 39.31
COc1ccc2cc([C@H](C)C(=O)n3ccc4c(-c5cnn([C@H](CC#N)C6CCCC6)c5)ncnc43)ccc2c1 [Ex. 31] | 3.08

Now from value to molecule:

Release Rate (%/day) | SMILES
2.97 | CCS(=O)(=O)N1CC(CC#N)(n2cc(-c3ncnc4c3ccn4C(=O)[C@@H](C)c3ccc4cc(OC)ccc4c3)cn2)C1 [Ex. 18, (S)-2-(1-(ethylsulfonyl)-3-(4-(7-(2-(6-methoxynaphthalen-2-yl)propanoyl)-7H-pyrrolo [2,3-d]pyrimidin-4-yl)-1H-pyrazol-1-yl)azetidin-3-yl) acetonitrile]
6.25 | CCS(=O)(=O)N1CC(CC#N)(n2cc(-c3ncnc4c3ccn4C(=O)C(C)c3cccc(C(=O)c4ccccc4)c3)cn2)C1 (stereo not drawn) [Ex. 19, 2-(3-(4-(7-(2-(3-benzoylphenyl)propanoyl)-7H-pyrrolo [2,3-d]pyrimidin-4-yl)-1H-pyrazol-1-yl)-1-(ethylsulfonyl)azetidin-3-yl) acetonitrile]
5.06 | CCS(=O)(=O)N1CC(CC#N)(n2cc(-c3ncnc4c3ccn4C(=O)C(C)c3ccc(-c4ccccc4)c(F)c3)cn2)C1 (stereo not drawn) [Ex. 20, 2-(1-(ethylsulfonyl)-3-(4-(7-(2-(2-fluoro-[1, 1′-biphenyl]-4-yl)propanoyl)-7H-pyrrolo [2,3-d]pyrimidin-4-yl)-1H-pyrazol-1-yl)azetidin-3-yl) acetonitrile]
4.6 | CCS(=O)(=O)N1CC(CC#N)(n2cc(-c3ncnc4c3ccn4C(=O)C(C)c3cccc(Oc4ccccc4)c3)cn2)C1 (stereo not drawn) [Ex. 21, 2-(1-(Ethylsulfonyl)-3-(4-(7-(2-(3-phenoxyphenyl)propanoyl)-7H-pyrrolo [2,3-d]pyrimidin-4-yl)-1H-pyrazol-1-yl)azetidin-3-yl) acetonitrile]
2.75 | CCS(=O)(=O)N1CC(CC#N)(n2cc(-c3ncnc4c3ccn4C(=O)C(C)c3ccc(CC4CCCC4=O)cc3)cn2)C1 (stereo not drawn) [Ex. 22]
7.63 | CCS(=O)(=O)N1CC(CC#N)(n2cc(-c3ncnc4c3ccn4C(=O)Cc3c(C)n(C(=O)c4ccc(Cl)cc4)c4ccc(OC)cc34)cn2)C1 [Ex. 23, 2-(3-(4-(7-(2-(1-(4-chlorobenzoyl)-5-methoxy-2-methyl-1H-indol-3-yl)acetyl)-7H-pyrrolo [2,3-d]pyrimidin-4-yl)-1H-pyrazol-1-yl)-1-(ethylsulfonyl)azetidin-3-yl) acetonitrile]
5.96 | CCS(=O)(=O)N1CC(CC#N)(n2cc(-c3ncnc4c3ccn4C(=O)Cc3ccc(NC(C)=O)cc3)cn2)C1 [Ex. 24, N-(4-(2-(4-(1-(3-(cyanomethyl)-1-(ethylsulfonyl)azetidin-3-yl)-1H-pyrazol-4-yl)-7H-pyrrolo [2,3-d]pyrimidin-7-yl)-2-oxoethyl)phenyl) acetamide]
0.68 | CCc1cccc2c3c([nH]c12)C(CC)(CC(=O)n1ccc2c(-c4cnn(C5(CC#N)CN(S(=O)(=O)CC)C5)c4)ncnc21)OCC3 (stereo not drawn) [Ex. 25, 2-(3-(4-(7-(2-(1,8-diethyl-1,3,4,9-tetrahydropyrano [3,4-b]indol-1-yl)acetyl)-7H-pyrrolo [2,3-d]pyrimidin-4-yl)-1H-pyrazol-1-yl)-1-(ethylsulfonyl)azetidin-3-yl) acetonitrile]
36.19 | CCS(=O)(=O)N1CC(CC#N)(n2cc(-c3ncnc4c3ccn4C(=O)[C@@H](NC(=O)OC(C)(C)C)c3ccccc3)cn2)C1 [Ex. 26, Tert-butyl (S)-(2-(4-(1-(3-(cyanomethyl)-1-(ethylsulfonyl)azetidin-3-yl)-1H-pyrazol-4-yl)-7H-pyrrolo [2,3-d]pyrimidin-7-yl)-2-oxo-1-phenylethyl) carbamate]
1.63 | CCC(C(=O)n1ccc2c(-c3cnn(C4(CC#N)CN(S(=O)(=O)CC)C4)c3)ncnc21)c1ccc(N2Cc3ccccc3C2=O)cc1 (stereo not drawn) [Ex. 30, 2-2-(1-(Ethylsulfonyl)-3-(4-(7-(2-(4-(1-oxoisoindolin-2-yl)phenyl)butanoyl)-7H-pyrrolo [2,3-d]pyrimidin-4-yl)-1H-pyrazol-1-yl)azetidin-3-yl) acetonitrile]
